Source: the supplement of paper PMC10307832

Key:
Test in all cases: relative viability (nuclei count vs DMSO), 5 days (fraction); higher = more cells survive
IPA-3 + Alpelisib = compound: C1=CC=C2C(=C1)C=CC(=C2SSC3=C(C=CC4=CC=CC=C43)O)O [IPA-3] + Cc1nc(NC(=O)N2CCC[C@H]2C(N)=O)sc1-c1ccnc(C(C)(C)C(F)(F)F)c1 [Alpelisib] (partner 2 µM)
In short: (§1)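 A single step with final 0.05% Triton X-100, 1% formaldehyde and 1 ug/ml Hoechst fixed the cells and stained nuclei 5 days after treatment. Lung cancer cell lines in 1536-well plates had been treated by pin tool the day after seeding with one drug alone or a fixed anchor-drug dose plus five library-drug doses (not always all listed) in √10 steps, and nuclei were counted on 4× images. Relative viability is the ratio of nuclei in treated wells to nuclei in vehicle wells, taken as the median of duplicate plates.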

Doramapimod + Tozasertib = compound: Cc1ccc(-n2nc(C(C)(C)C)cc2NC(=O)Nc2ccc(OCCN3CCOCC3)c3ccccc23)cc1 [Doramapimod] + Cc1cc(Nc2cc(N3CCN(C)CC3)nc(Sc3ccc(NC(=O)C4CC4)cc3)n2)n[nH]1 [Tozasertib] (partner 0.1 µM)
In short: as §1

RAF265 + Navitoclax = compound: Cn1c(Nc2ccc(C(F)(F)F)cc2)nc2cc(Oc3ccnc(-c4ncc(C(F)(F)F)[nH]4)c3)ccc21 [RAF265] + CC1(C)CCC(c2ccc(Cl)cc2)=C(CN2CCN(c3ccc(C(=O)NS(=O)(=O)c4ccc(N[C@H](CCN5CCOCC5)CSc5ccccc5)c(S(=O)(=O)C(F)(F)F)c4)cc3)CC2)C1 [Navitoclax] (partner 0.5 µM)
In short: as §1

RAF265 + AZD7762 = compound: Cn1c(Nc2ccc(C(F)(F)F)cc2)nc2cc(Oc3ccnc(-c4ncc(C(F)(F)F)[nH]4)c3)ccc21 [RAF265] + NC(=O)Nc1cc(-c2cccc(F)c2)sc1C(=O)N[C@H]1CCCNC1 [AZD7762] (partner 0.2 µM)
In short: as §1

Cell Line	relative viability (IPA-3 + Alpelisib; first compound 0.2 µM)	relative viability (IPA-3 + Alpelisib; first compound 0.6325 µM)	relative viability (IPA-3 + Alpelisib; first compound 2 µM)	relative viability (IPA-3 + Alpelisib; first compound 6.325 µM)	relative viability (IPA-3 + Alpelisib; first compound 20 µM)	relative viability (Doramapimod + Tozasertib; first compound 0.02 µM)	relative viability (Doramapimod + Tozasertib; first compound 0.06325 µM)	relative viability (Doramapimod + Tozasertib; first compound 0.2 µM)	relative viability (Doramapimod + Tozasertib; first compound 0.6325 µM)	relative viability (Doramapimod + Tozasertib; first compound 2 µM)	relative viability (RAF265 + Navitoclax; first compound 0.01 µM)	relative viability (RAF265 + Navitoclax; first compound 0.03162 µM)	relative viability (RAF265 + Navitoclax; first compound 0.1 µM)	relative viability (RAF265 + Navitoclax; first compound 0.3162 µM)	relative viability (RAF265 + Navitoclax; first compound 1 µM)	relative viability (RAF265 + AZD7762; first compound 0.01 µM)	relative viability (RAF265 + AZD7762; first compound 0.03162 µM)	relative viability (RAF265 + AZD7762; first compound 0.1 µM)	relative viability (RAF265 + AZD7762; first compound 0.3162 µM)	relative viability (RAF265 + AZD7762; first compound 1 µM)
LK-2	1.13	1.02	1.19	1.19	1.22	0.186	0.182	0.18	0.179	0.192	0.777	0.791	0.832	0.633	0.57	0.506	0.432	0.537	0.448	0.371
NCI-H2405	0.815	0.771	0.753	0.853	0.829	0.774	0.703	0.675	0.869	0.635	0.984	0.86	0.973	0.909	0.335	0.849	0.723	0.634	0.549	0.326
NCI-H2087	1.19	0.974	1.21	1.07	0.973	0.32	0.308	0.253	0.223	0.233	0.995	0.823	0.692	0.683	0.568	1.19	1.18	1.02	1.2	1.12
NCI-H460	0.711	0.409	0.46	0.479	0.426	0.455	0.517	0.49	0.673	0.372	1.17	1.08	1.21		0.852	0.586	0.666	0.775	0.598	0.38
LOU-NH91	0.717	0.702	0.723	0.674	0.914	0.715	0.66	0.798	0.76	0.488	0.731	0.594	0.757	0.389	0.387	0.756	0.71	0.687	0.631	0.551
NCI-H1651	1.01		0.912	0.904	1.15	0.726	0.703	0.75	0.719	0.608	0.992	0.884	1.06	0.874	0.871	0.508	0.497	0.401	0.406	0.365
NCI-H441	0.942		0.628	0.668	0.782	0.719	0.63	0.576		0.622	0.582		0.515	0.5	0.776	1.1	1.08	1.2	0.967	0.936
